Laboratory results: US20070202047A1, “Polyamine-substituted ligands for use as contrast agents” (priority 2006, published 2007)
“Also recorded” adds a separate entry of the source.

What was measured:
B16 melanoma cells = assay: Intracellular uptake of gadolinium complexes (ICP-MS); assay type: cell-based, mouse; conditions: for factor of higher cellular uptake in B16 melanoma vs. the hepatoma cells: 24-h incubation (FIG. 2A)
Method: (§1) Cell culture. B16 melanoma cells (mouse) and MH3924A Morris hepatoma cells (rat) were obtained from the German Cancer Research Center (DKFZ) tumor bank and grown at 37° C. as stock cultures in RPMI 1640 supplemented with 10% fetal calf serum and 1% glutamine as standard medium under a 5% CO2 atmosphere (all components: Pan Biotech GmbH, Aidenbach, Germany). For contrast agent uptake studies 10^6 cells were inoculated into 25 cm^2 culture flasks (BD Biosciences, Bedford, USA) and grown for 24 h in 10 mL of the standard culture medium. Cells were then incubated for an additional 24 h (1 h for temperature dependence studies) with fresh medium containing 0, 1, 2.5, 5 or 10 μM of the selected gadolinium complex (three replicate flasks for each incubation). Afterwards the medium was removed, cells were trypsinated, washed twice, resuspended in culture medium and counted (typical yields: 3.5-6 million cells). For comparison 2.5×10^5 human melanocytes (Promo Cell, Heidelberg, Germany) were incubated for 24 h with melanocyte growth medium (Promo Cell, Heidelberg, Germany) containing 0, 1, 2.5, 5 or 10 μM of the selected gadolinium complex (two replicate flasks for each incubation). The work up procedure was as described above typically yielding 2.5×10^5 cells. Cultured human hepatocytes (Cytonet GmbH, Weinheim, Germany) embedded in a collagen matrix in a 12 well microtiter plate, with 6×10^5 viable cells per well were incubated for 24 h in hepatocyte growth medium (Cytonet GmbH, Weinheim, Germany) containing the same concentration series of selected gadolinium complexes. Afterwards the medium was removed, cells were separated using collagenase (Roche Diagnostics, Mannheim, Germany). After digestion the cells were washed twice with PBS, resuspended in culture medium and counted (typical yields: 6×10^5 cells per tube). The intracellular gadolinium content was determined by ICP-MS as described below.
(§2) ICP-MS. Samples containing the above mentioned number of harvested cells were digested with 50% concentrated HNO3 (Superselect; Merck, Darmstadt, Germany) under microwave heating with a Mars 5 apparatus (CEM GmbH, Kamp-Lintfort, Germany). To each sample 100 μL of an aqueous solution of rhodium chloride (1 μg/mL) were added so that Rh-103 could be used as an internal quantification standard. Gd-160 measurements were performed with the ICP-MS instrument mentioned above. The gadolinium concentrations were determined using standard curves created prior to cell analyses. For each uptake incubation condition triplicate cell samples were analyzed, and Gd content for each sample was recorded as the mean of two MS determinations.
(§3) Intracellular Uptake of Gadolinium Complexes. B16 melanoma and MH3924A hepatoma cells as well as human melanocytes and hepatocytes were incubated for 24 h in the presence of the gadolinium complexes shown in FIG. 1, using concentrations in the range of 1-10 μM. Incubations with the unsubstituted [Gd(DTPA)(H2O)]^2−complex (Magnevist®) served as controls. Following cell harvest and hydrolysis, inductively coupled plasma mass spectrometry (ICP-MS) with direct detection of gadolinium was used to quantitate complex uptake (triplicate cultures for each incubation).
(§4) Cell Uptake Studies. A493 (human kidney), B16 melanoma cells (mouse), HeLa (human cervix), MCF-7 (human breats), MH3924A (Morris hepatoma) cells (rat) and 3T3 NIH (mouse fibroblasts) were obtained from the DKFZ tumor cell collection. 3×10^6 cells of each cell type were grown for 24 hours in culture flasks. Afterwards they were incubated for 1 hour in 10 mL culture media containing 0, 10, 50 and 100 μM of Gd-2.2. Gd-3.2 or Gd-4.2. Afterwards the medium was removed, the cells were trypsinated, washed twice, resuspended in culture medium and counted. The gadolinium uptake was determined in triplicate. […] cells were incubated with 0, 1, 2.5, 5 and 10 μM of the Gd-1.2. and Gd-5.2. for 24 h. […]

[1] = tested on: MH3924A Morris hepatoma cells; assay: as above; assay type: cell-based, rat
Method: as §1, §2, §3, §4

Complex stability = assay type: physicochemical; conditions: method of Sherry et al.
Method: Complex stability. The stability constants were determined using a method of Sherry et al. (39).

MH3924A cells = assay: Polyamine transport inhibition (binding inhibition assay with benzyl viologen); assay type: cell-based, rat; conditions: 25 fold molar excess of benzyl viologen over 1 μM Gd-5.1 or Gd-6.1, MH3924A
Method: Polyamine transport inhibition. 10^6 MH3924A cells were inoculated into 25 cm^2 culture flasks (BD Biosciences, Bedford, USA) and grown for 24 h in 10 mL of the standard culture medium. Cells were then incubated for an additional 24 h with fresh medium containing 1 μM of Gd-5.1. or Gd-6.1. and 0, 1, 10, 25, 50 or 100 μM of the polyamine uptake inhibitor benzyl viologen (34, 35). Afterwards the medium was removed, cells were trypsinated, washed twice, resuspended in culture medium and counted (typical yields: 3.5-6 million cells). The gadolinium content of the cells was determined by ICP-MS as described below.
as §2

[2] = tested on: subcutaneous MH3924A tumor; assay: MRI of ACI rats bearing a subcutaneous MH3924A tumor; assay type: in vivo, rat; conditions: 24 h post Gd, 0.1 mmol/kg i.v., 2.35 T
Method: (§5) Animal models. For in vivo tumor studies 2×10^6 MH3924A tumor cells were injected subcutaneously into the right thigh of male ACI rats (Charles River, Sulzfeld, Germany) weighing 220 to 260 g. All animal experiments were performed in compliance with the German Animal Protection Laws (Permission 35-9185.81/G-7-03, Reg.-Praesidium, Karlsruhe, Germany).
MRI. At 25 days after inoculation, when tumors had reached a diameter of ca. 10-15 mm, the MR imaging experiments were initiated. ACI rats were anesthetized by intravenous injection of ketamin (Ketanest®, 0.1 mg/g body wt.; Parke-Davis, Berlin, Germany). Then a dose of 0.1 mmol/kg Magnevist® or Gadovist® (Schering, Berlin, Germany) or one of the synthesized agents Gd-3.1., Gd-5.1. or Gd-6.1. was injected intravenously into a lateral tail vein. For one experiment a higher dose (0.36 mmol/kg) of Magnevist® was used. Individual rats were examined by MRI at 1 h and 24 h post Gd, in the case of Magnevist® also at ca. 15 min post Gd. Proton imaging studies were performed at 2.35 T (100.3 MHz) with a Biospec 24/40 instrument (Bruker BioSpin MRI, Ettlingen, Germany). […] Two transaxial multislice imaging protocols were applied with a field of view of 70×70 mm, 128 time-domain data points, 96 phase-encoding steps, and 16 slices of 2 mm thickness. A multi-spin-echo sequence was used for proton-density and T2-weighted images (repetition time TR=2 s, 12 echoes with echo times TE of 8, 16, 24, . . . 96 ms, number of averages=1), and a spoiled gradient-echo sequence was used for T1-weighted imaging (TR=212 ms, TE=5 ms, flip angle=60°, number of averages=3). The data were Fourier transformed to give a 128×128 image matrix with 0.55 mm pixel resolution. Analogous T1-weighted images with coronal slices were acquired with a field of view of 80×80 mm and 3-mm slice thickness.
Imaging viewing, ROI analysis and export of TIFF files was performed with the freeware MRIcro from Chris Rorden (http://people.cas.sc.edu/rorden/mricro.html).

[3] = Biodistribution and excretion in tumor-bearing ACI rats; assay type: in vivo, rat
Method: as §5
Biodistribution and excretion data. At 14 days after tumor inoculation, when tumors had reached a diameter of ca. 5-6 mm, the biodistribution experiments were initiated. Each animal (210-250 g) was given an intravenous tail-vein injection of […] Magnevist® (Schering, Berlin, Germany) or […] of Gd-5.1. or Gd-6.1. 1 h and 24 hs post-injection (p.i.), the animals were weighed, sacrificed by cervical dislocation and dissected. Organs or tissues were blotted dry and weighed. Samples containing 100-500 mg of the tumor or organs were digested with concentrated HNO3 (Superselect; Merck, Darmstadt, Germany) and H2O2 under microwave heating with a Mars 5 apparatus (CEM GmbH, Kamp-Lintfort, Germany). To each sample 100 μL of an aqueous solution of rhodium chloride (1 μg/mL) were added so that Rh-103 could be used as an internal quantification standard. Gd-160 measurements were performed with the ICP-MS instrument mentioned above. The gadolinium concentrations were determined using standard curves created prior to tissue analyses. The results were expressed as % ID/g tissue. Urine and faeces were gathered in order to measure the excreted amount of Gd(III).

[4] = 1 h post i.v. injection, one ACI rat, scaled to Gd dose of 100 μmol/kg

## CCN(CC)CCNC(=O)CN(CCN(CCN(CC(=O)[O-])CC(=O)NCCN(CC)CC)CC(=O)[O-])CC(=O)[O-].[Gd+3] [Gd-2.1]
B16 melanoma cells
  factor of higher cellular uptake in B16 melanoma vs. the hepatoma cells: ~1.72

## NCCCCN(CCCNCCCN)C(=O)CN(CCN(CCN(CC(=O)[O-])CC(=O)N(CCCCN)CCCNCCCN)CC(=O)[O-])CC(=O)[O-].[Gd+3] [Gd-5.2]
[1]; MH3924A, 24 h incubation, 1-10 μM (concentration not given)
  intracellular uptake of gadolinium complex: 0.3 fmol/cell
B16 melanoma cells; B16 melanoma cells, 24 h incubation, 1-10 μM (concentration not given)
  intracellular uptake of gadolinium complex: 0.03 fmol/cell
Complex stability
  complex stability constant: 4.22×10^15

## CCN(CC)CCNC(=O)c1ccc(NC(=O)CN(CCN(CCN(CC(=O)[O-])CC(=O)Nc2ccc(C(=O)NCCN(CC)CC)cc2)CC(=O)[O-])CC(=O)[O-])cc1.[Gd+3] [Gd-1.1]
[1]; MH3924A cells, 24-h incubation, 10 μM
  intracellular uptake of gadolinium complex: ca. 0.062 fmol/cell
B16 melanoma cells
  factor of higher cellular uptake in B16 melanoma vs. the hepatoma cells: ~2.2

## NCCCNCCCCN(CCCN)C(=O)CN1CCN(CC(=O)[O-])CCN(CC(=O)[O-])CCN(CC(=O)[O-])CC1.[Gd+3] [Gd-4.2]
[1]; MH3924A and B16 melanoma cells, 1 h incubation, 100 μM
  relative uptake (in words): comparable with the uptake of Gd-2.2., but somewhat lower; also recorded: lower than uptake of Gd-3.2. and Gd-2.2., but still sufficient for MRI imaging

## CCCCCCCCCNC(=O)CN(CCN(CCN(CC(=O)[O-])CC(=O)NCCN(CC)CC)CC(=O)[O-])CC(=O)[O-].[Gd+3] [Gd-4.1]
B16 melanoma cells; 24-h incubation, cell line and concentration not stated
  intracellular uptake (neglectable, near the detection limit): 0.0036 fmol/cell

## c1ccc(C[n+]2ccc(-c3cc[n+](Cc4ccccc4)cc3)cc2)cc1 [benzyl viologen]
MH3924A cells
  inhibition of Gd complex uptake: up to 90%

## CCN(CC)CCNC(=O)c1ccc(NC(=O)CN2CCN(CC(=O)[O-])CCN(CC(=O)[O-])CCN(CC(=O)[O-])CC2)cc1.[Gd+3] [Gd-1.2]
[1]; B16 and MH3924A, 24 h incubation, 1-10 μM
  relative uptake (in words): sufficient for MRI imaging purposes but was the lowest of all tested complexes

## O.O=C([O-])CN1CCN(CC(=O)[O-])CCN(CC(=O)[O-])CCN(CC(=O)[O-])CC1.[Gd+3] [[Gd(DOTA)(H2O)]^−, reference compound]
[1]; MH3924A cells, control incubation of Example 2
  intracellular uptake (below ICP-MS detection limit): < 0.0002 fmol/cell
B16 melanoma cells; B16 melanoma cells, control incubation of Example 2
  intracellular uptake (below ICP-MS detection limit): < 0.0002 fmol/cell

## CNC[C@H](O)[C@@H](O)[C@H](O)[C@H](O)CO.CNC[C@H](O)[C@@H](O)[C@H](O)[C@H](O)CO.O=C([O-])CN(CCN(CC(=O)[O-])CC(=O)O)CCN(CC(=O)[O-])CC(=O)O.[Gd+3] [Magnevist, gadopentetate dimeglumine, reference compound]
[1]; MH3924A cells, 24-h incubation, 1-10 μM, listed as [Gd(DTPA)(H2O)]^2−
  intracellular uptake (below ICP-MS detection limit): < 0.0002 fmol/cell
[2]
  contrast ratio tumor vs. muscle tissue, T1 weighting: no contrast with T1 weighting was achieved
[3]; [4]
  Gd concentration, Blood: 4.8 nmol/g
  Gd concentration, Bone (femur): 0.8 nmol/g
  Gd concentration, Bone Marrow (femur): 1.5 nmol/g
  Gd concentration, Brain: 0.4 nmol/g
  Gd concentration, Kidney (+urine): 40.7 nmol/g
  Gd concentration, Liver: 3.0 nmol/g
  Gd concentration, Lung: 4.1 nmol/g
  Gd concentration, Muscle (femur): 1.3 nmol/g
  Gd concentration, Small Intestine: 1.8 nmol/g
  Gd concentration, Spleen: 1.5 nmol/g
  Gd concentration, Tumor (MH3924A): 3.1 nmol/g
  Gd concentration, Urine (cumulative): 25805.3 nmol/g
[3]; one hour post injection, ACI rat
  gadolinium found in the urine: 88%
B16 melanoma cells; B16 melanoma cells, 24-h incubation, 1-10 μM
  intracellular uptake (below ICP-MS detection limit): < 0.00002 fmol/cell
B16 melanoma cells; B16 melanoma cells, 24-h incubation, 1-10 μM, listed as [Gd(DTPA)(H2O)]^2−
  intracellular uptake (below ICP-MS detection limit): < 0.0002 fmol/cell
